Experimental data: US8673841B2 (Ferring B.V., priority 2008, dated 2014)
Starred links: 1 amine or outer side, 2 acyl side, 3 side chain; linkers in the order of their positions; H or OH if unused. Positions of bridges follow the written chain, without caps; N, C: chain ends. Non-standard residues stand in square brackets, D forms with d. Residues, ends and D or L forms follow the SMILES beside them. N(3-phenylpropyl)Gly = O=C(O)CNCCCc1ccccc1; Phe(4-Et) = CCc1ccc(C[C@H](N)C(=O)O)cc1; X1 = O=C(CN(Cc1ccc(F)c(F)c1)[*:1])[*:2]; X4 = Cc1ccc(CCN(CC(=O)[*:2])[*:1])cc1; cisHyp = O=C(O)[C@@H]1C[C@H](O)CN1; X2 = O=C(CCC[*:2])[*:1]; Mpa = O=C(O)CCS

How the values were obtained:
[1] = target: human vasopressin (hV2) receptor (Homo sapiens, UniProt P30518); test: luciferase-based transcriptional reporter gene assay expressing the human vasopressin (hV2) receptor; settings: for Selectivity hV2/hOT: EC50 ratio hV2/hOT
Chain of human vasopressin (hV2) receptor (P30518 whole entry): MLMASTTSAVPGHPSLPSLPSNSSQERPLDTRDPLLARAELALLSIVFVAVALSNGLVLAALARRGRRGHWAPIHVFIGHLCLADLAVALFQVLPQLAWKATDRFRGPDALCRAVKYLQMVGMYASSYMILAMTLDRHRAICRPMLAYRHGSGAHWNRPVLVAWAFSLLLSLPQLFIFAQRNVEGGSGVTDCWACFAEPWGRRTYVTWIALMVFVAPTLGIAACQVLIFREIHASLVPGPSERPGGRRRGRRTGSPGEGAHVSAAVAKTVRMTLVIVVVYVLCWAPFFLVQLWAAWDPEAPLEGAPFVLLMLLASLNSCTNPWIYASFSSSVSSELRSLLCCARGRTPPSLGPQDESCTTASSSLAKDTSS
Protocol: (§1) Agonist activity of compounds on the hOT receptor was determined in a transcriptional reporter gene assay by transiently transfecting a hOT receptor expression DNA into a Chinese Hamster Ovary (CHO) cell line in concert with a reporter DNA containing intracellular calcium responsive promoter elements regulating expression of firefly luciferase.
(§2) The EC50 value given is the geometric mean expressed in nanomol/l (nM). Selectivity values are given as EC50 ratios.

hOT receptor = target: T1, hOT receptor (Homo sapiens, UniProt P30559); test: transcriptional reporter gene assay (luciferase), agonist activity on hOT receptor in transfected CHO cells
T1 sequence (P30559 1-389): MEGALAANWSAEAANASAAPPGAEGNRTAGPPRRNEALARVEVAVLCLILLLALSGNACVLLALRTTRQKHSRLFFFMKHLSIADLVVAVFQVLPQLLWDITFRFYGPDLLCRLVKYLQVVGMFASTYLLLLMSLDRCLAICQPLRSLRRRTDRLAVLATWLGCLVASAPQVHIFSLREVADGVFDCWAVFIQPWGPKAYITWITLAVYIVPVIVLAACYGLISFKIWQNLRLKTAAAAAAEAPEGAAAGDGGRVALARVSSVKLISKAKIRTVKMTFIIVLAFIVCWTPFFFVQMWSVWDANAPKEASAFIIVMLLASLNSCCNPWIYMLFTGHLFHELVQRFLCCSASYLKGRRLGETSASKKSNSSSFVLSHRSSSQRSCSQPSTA
Protocol: as §1, §2

Row | EC50 [1] | Selectivity hV2/hOT [1] | EC50 (hOT receptor) | Compound
1 | 58.5 nM | 2217 | 0.026 nM | CC[C@H](C)[C@@H]1NC(=O)[C@H](Cc2ccc(O)cc2)NC(=O)CCSSC[C@@H](C(=O)N(CC(=O)N[C@@H](CC(C)C)C(=O)NCC(N)=O)Cc2ccc(F)c(F)c2)NC(=O)[C@H](CC(N)=O)NC(=O)[C@H](CCC(N)=O)NC1=O [Compound 11] ([Mpa]YIQNC[X1]LG-NH2; disulfide 1-6)
2 | 102 nM | 2533 | 0.04 nM | CC[C@H](C)[C@@H]1NC(=O)[C@H](Cc2ccc(O)cc2)NC(=O)CCSSC[C@@H](C(=O)N(CCc2ccc(C)cc2)CC(=O)N[C@@H](CC(C)C)C(=O)NCC(N)=O)NC(=O)[C@H](CC(N)=O)NC(=O)[C@H](CCC(N)=O)NC1=O [Compound 15] ([Mpa]YIQNC[X4]LG-NH2; disulfide 1-6)
3 | 159 nM | 2736 | 0.058 nM | CC[C@H](C)[C@@H]1NC(=O)[C@H](Cc2ccc(O)cc2)NC(=O)CCSSC[C@@H](C(=O)N(CCCc2ccccc2)CC(=O)N[C@@H](CC(C)C)C(=O)NCC(N)=O)NC(=O)[C@H](CC(N)=O)NC(=O)[C@H](CCC(N)=O)NC1=O [Compound 25] ([Mpa]YIQNC[N(3-phenylpropyl)Gly]LG-NH2; disulfide 1-6)
4 | 39.9 nM | 629 | 0.064 nM | CCc1ccc(C[C@@H]2NC(=O)CCCSC[C@@H](C(=O)N3C[C@@H](O)C[C@H]3C(=O)N[C@@H](CC(C)C)C(=O)NCC(N)=O)NC(=O)[C@H](CC(N)=O)NC(=O)[C@H](CCC(N)=O)NC(=O)[C@H]([C@@H](C)CC)NC2=O)cc1 [Compound 6] ([Phe(4-Et)]IQNC[cisHyp]LG-NH2; linker N-5 via X2)
